Values quoted from earlier work as cited in patent US7361789B1, “Dihydronaphthalene compounds, compositions, uses thereof, and methods for synthesis” (Amgen Inc., priority 2004, dated 2008).
Read-outs that look alike come from different tables or passages of the source.

Structure (SMILES): C[C@@H](NCCCc1cccc(C(F)(F)F)c1)c1cccc2ccccc12 [cinacalcet]
- solubility in water (neutral pH): less than 1 μg/mL
- solubility (pH is about 1): about 0.1 mg/mL
- solubility (pH ranges from about 3 to about 5): about 1.6 mg/mL
